From patent publication US6503935B1, “Imidazoles and related compounds as α1A agonists” (Abbott Laboratories, priority 1998, dated 2003)
Structures can show the parent of a compound that is named as a salt.

Tests used:
[1] = biological target: T1, α1A (rat submaxillary gland) (Rattus norvegicus, UniProt P43140); assay: Radioligand binding with [3H]-prazosin, α1A; details: rat submaxillary gland, [3H]-prazosin
T1 construct: α1A (rat submaxillary gland); from tissue; host or cells: rat submaxillary gland
T1 sequence (P43140 1-466): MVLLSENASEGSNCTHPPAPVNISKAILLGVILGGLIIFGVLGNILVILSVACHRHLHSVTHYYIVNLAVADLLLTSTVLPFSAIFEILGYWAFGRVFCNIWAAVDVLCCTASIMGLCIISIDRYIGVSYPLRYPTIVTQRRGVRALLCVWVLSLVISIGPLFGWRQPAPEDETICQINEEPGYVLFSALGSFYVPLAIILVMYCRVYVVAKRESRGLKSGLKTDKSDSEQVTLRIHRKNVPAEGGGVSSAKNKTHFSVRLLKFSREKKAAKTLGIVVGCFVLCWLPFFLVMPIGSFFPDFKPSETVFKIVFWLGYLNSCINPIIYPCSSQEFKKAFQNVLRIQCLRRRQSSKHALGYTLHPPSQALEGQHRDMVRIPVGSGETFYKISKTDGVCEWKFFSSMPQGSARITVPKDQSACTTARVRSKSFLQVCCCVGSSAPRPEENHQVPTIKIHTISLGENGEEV
Procedure, shortened: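 Radioligand binding with [3H]-prazosin: α1A from rat submaxillary gland; α1b hamster receptor and α1d rat receptor, each expressed in mouse fibroblasts.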

[2] = system: Anesthetized Dogs; assay: Mean arterial pressure (MAP) in anesthetized dogs; format: in vivo, dog; details: iv dose causing a maximum increase in MAP of 20 mm Hg, anesthetized female dogs
Procedure, shortened: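 Female dogs (12–15 kg) with carotid telemetry implants, thiopental 15 mg/kg i.v. then isoflurane (2.5 to 3 volume %) anesthesia; increasing i.v. doses of agonist with return to baseline between doses. MAP from telemetered arterial pressure; ED20 = dose raising MAP by 20 mm Hg, compared with IUP ED5 as selectivity ratio.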

[3] = biological target: T2, α1D (rat aorta) (Rattus norvegicus, UniProt P23944); assay: Agonist contraction of smooth muscle tissue, rat aorta; format: cell-based; details: rat aorta, endothelium removed; for EC50: read-out: Agonist Tissue Response (pD2) α1D (rat aorta) (converted)
T2 construct: α1B (rat spleen) and α1D (rat aorta) receptors; from tissue; host or cells: rat aorta strips, endothelium removed
T2 sequence (P23944 1-561): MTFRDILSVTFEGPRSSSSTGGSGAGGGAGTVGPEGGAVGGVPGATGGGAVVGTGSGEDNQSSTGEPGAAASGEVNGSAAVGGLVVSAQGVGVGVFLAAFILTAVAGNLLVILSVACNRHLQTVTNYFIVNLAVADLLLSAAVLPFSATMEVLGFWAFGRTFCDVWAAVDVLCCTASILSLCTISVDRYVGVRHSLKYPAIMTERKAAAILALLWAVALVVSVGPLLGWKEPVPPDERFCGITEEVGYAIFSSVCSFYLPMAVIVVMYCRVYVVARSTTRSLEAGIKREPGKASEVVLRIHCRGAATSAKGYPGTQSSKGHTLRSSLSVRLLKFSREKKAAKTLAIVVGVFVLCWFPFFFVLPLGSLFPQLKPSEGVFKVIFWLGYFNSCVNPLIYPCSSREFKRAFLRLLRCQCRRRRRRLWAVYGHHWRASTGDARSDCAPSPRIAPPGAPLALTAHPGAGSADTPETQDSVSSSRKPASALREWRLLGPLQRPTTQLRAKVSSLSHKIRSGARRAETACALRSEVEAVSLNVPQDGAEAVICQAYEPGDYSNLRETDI

[4] = biological target: T3, α1B (rat spleen) (Rattus norvegicus, UniProt P15823); assay: Agonist contraction of smooth muscle tissue, rat spleen; format: cell-based; details: rat spleen; read-out: Agonist Tissue Response (pD2) α1B (rat spleen) (converted)
T3 construct: α1B (rat spleen) and α1D (rat aorta) receptors; from tissue; host or cells: rat spleen
T3 sequence (P15823 1-515): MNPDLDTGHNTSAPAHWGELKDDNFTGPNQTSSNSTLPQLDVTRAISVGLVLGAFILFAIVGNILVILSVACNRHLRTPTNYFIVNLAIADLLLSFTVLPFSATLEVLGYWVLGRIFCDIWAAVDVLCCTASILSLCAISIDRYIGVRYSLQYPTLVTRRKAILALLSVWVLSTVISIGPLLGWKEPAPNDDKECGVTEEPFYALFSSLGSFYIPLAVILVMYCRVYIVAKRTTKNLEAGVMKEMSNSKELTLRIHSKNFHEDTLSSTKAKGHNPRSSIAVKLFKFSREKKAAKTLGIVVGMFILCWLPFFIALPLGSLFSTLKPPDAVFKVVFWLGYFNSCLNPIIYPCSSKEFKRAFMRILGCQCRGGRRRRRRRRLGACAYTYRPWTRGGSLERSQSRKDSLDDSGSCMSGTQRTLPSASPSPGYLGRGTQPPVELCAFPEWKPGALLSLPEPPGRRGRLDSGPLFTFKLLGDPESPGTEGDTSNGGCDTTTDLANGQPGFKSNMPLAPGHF

Row | Structure (SMILES) | Ki [1] [µM] | Mean MAP ED20 [2] [nmol/kg] | EC50 [3] [µM] | EC50 [4] [µM] | Mean MAP ED20 ([2]; maleate) [nmol/kg] | Agonist Tissue Response (pD2) α1D (rat aorta) [3]
1 | COc1ccc(NS(C)(=O)=O)c2c1C(c1c[nH]cn1)CCC2 (stereo not drawn) [Example 26, N-[5,6,7,8-tetrahydro-(1H-imidazol-4-yl)-4-methoxyy-1-naphthalenyl]methanesulfonamide, maleate] | 1.68 | 1850 | > 1000 | 18.2 |  | 
2 | CCS(=O)(=O)Nc1cccc2c1CCCC2c1c[nH]cn1.O=C(O)/C=C\C(=O)O (single isomer, unassigned; (+)) [Example 33, (+)-N-[5-(1H-imidazol-4-yl)-5,6,7,8-tetrahydro-1-naphthalenyl]ethanesulfonamide, maleate] | 0.0468 |  | > 1000 | 3.8 | 34.0 | 
3 | CN(c1cccc2c1CCCC2c1c[nH]cn1)S(C)(=O)=O (stereo not drawn) [Example 15, N-[5,6,7,8-tetrahydro-5-(1H-imidazol-4-yl)-1-naphthalenyl]-N-methylmethanesulfonmamide, maleate] | 0.204 | 225 | > 1000 | 2.24 |  | 
4 | CS(=O)(=O)Nc1ccc(F)c2c1CCCC2c1c[nH]cn1.O=C(O)/C=C\C(=O)O (stereo not drawn) [Example 44, N-[4-fluoro-5-(1H-imidazol-4-yl)-5,6,7,8-tetrahydro-1-naphthalenyl]methanesulfonamide, maleate] | 0.31 | 632 | > 1000 | > 1000 |  | 
5 | CCS(=O)(=O)Nc1cccc2c1CCCC2c1c[nH]cn1.O=C(O)/C=C\C(=O)O (single isomer, unassigned; (-)) [Example 34, (−)-N-[5-(1H-imidazol-4-yl)-5,6,7,8-tetrahydro-1-naphthalenyl]ethanesulfonamide, maleate] | 1.3 |  |  | > 1000 | >1000 | <3.00
6 | CCS(=O)(=O)Nc1cccc(Cc2c[nH]cn2)c1C.O=C(O)/C=C\C(=O)O [Example 29, N-[3-(1H-imidazol-4-ylmethyl)-2-methylphenyl]ethanesulfonamide, maleate] | 0.258 | 202 | > 1000 | > 1000 |  | 
7 | O=C(Nc1cccc2c1CCCC2c1c[nH]cn1)C(F)(F)F (stereo not drawn) [Example 17, 2,2,2-trifluoro-N-[5-(1H-imidazol-4-yl)-5,6,7,8-tetahydro-1-naphthalenyl]acetamide, maleate] | 0.167 | 216 | > 1000 | 3.39 |  | 
8 | CC(c1cccc(NS(C)(=O)=O)c1)c1c[nH]cn1.O=C(O)/C=C\C(=O)O (stereo not drawn) [Example 31, N-[3-[1-(1H-imidazol-4-yl)ethyl]phenyl]methanesulfonamide, maleate] | 0.837 | 234 | > 1000 | > 1000 |  | 
9 | Cc1c(Cc2c[nH]cn2)cccc1NS(C)(=O)=O.O=C(O)/C=C\C(=O)O [Example 28, N-[3-(1H-imidazol-4-ylmethyl)-2-methylphenyl]methanesulfonamide, maleate] | 0.525 | 158 | > 1000 | 7.76 |  | 
10 | C=C(c1cccc(NS(=O)(=O)CC)c1)c1c[nH]cn1 [Example 45, N-{3-[1-(1H-imidazol-4-yl)vinyl]phenyly}ethanesulfonamide, maleate] | 0.565 | 633 | > 1000 | > 1000 |  | 
11 | CCS(=O)(=O)Nc1cccc2c1CCCC2c1c[nH]cn1.O=C(O)/C=C\C(=O)O (stereo not drawn) [Example 12, N-[5-(1H-imidazol-4-yl)-5,6,7,8-tetrahydro-1-naphthalenyl]ethanesulfonamide, maleate] | 0.0959 | 69.3 | > 1000 | > 1000 |  | 
12 | CS(=O)(=O)Nc1cccc(Cc2c[nH]cn2)c1.O=C(O)/C=C\C(=O)O [Example 21, N-[3-(1H-imidazol-4-ylmethyl)phenyl]methanesulfonamide, maleate] | 0.361 | 52.3 | > 1000 | > 1000 |  | 
